# Laboratory results reported in publication PMC5363373, “Zirconium tetraazamacrocycle complexes display extraordinary stability and provide a new strategy for zirconium-89-based radiopharmaceutical development” (Chemical Science, 2016).
# Experiments:
# [1] = In vitro EDTA challenge study; format: physicochemical
# Description: In vitro EDTA challenge study. In vitro EDTA challenge study was carried out by adding 10 µL of each 89Zr-labeled complex (70 μCi, 2.59 MBq) to 500 µL of EDTA (10 mM, 50 mM and 100 mM: pH 5 and pH 7) with a 1:100, 1:500, and 1:1000 ratio of ligand/EDTA. The solutions (n=4) were incubated at 37 °C for 7 days in a thermomixer. Samples were analyzed at 30 min, 1 h, 3 h, 6 h, 1 d, 3 d, 5 d and 7 d post administration to EDTA by radio-TLC using Varian ITLC-SA strips and 0.1 M EDTA (pH 5) as the mobile phase and gamma counting using an energy window of 500-1500 keV and standard protocols .
# [2] = In vitro metal competition study; format: physicochemical; conditions: PBS pH 7.4, 37 C
# Description: In vitro Metal Competition study. To a solution of metal cations [iron (III) chloride, cobalt (II) chloride, zinc (II) chloride, copper (II) chloride, magnesium (II) chloride, gallium (III) nitrate, gadolinium (III) chloride] (1 mM, 200 µL), was added 89Zr-labeled complex (0.1 mM, 10 µL, 80 μCi, 2.96 MBq) in PBS, pH 7.4. The resulting solutions (n = 3) were incubated at 37 °C for 7 days in a thermomixer. Dissociation of 89Zr from 89Zr-complexes was monitored by radio-TLC at 2 h, 1 d, 4 d and 7 d time point. All studies were performed in triplicate.
# [3] = In vitro serum stability (radio-ITLC); format: in vitro ADME; conditions: 37 C, after 7 days
# Description: In vitro serum stability. In vitro serum stability was carried out by adding 10 µL of each 89Zr-labeled complex (70 μCi, 2.59 MBq) to 500 µL of human serum. The solutions (n=4) were incubated at 37 °C for 7 days and were analyzed daily for 1 week by radio -TLC using Varian ITLC-SA strips and 0.1 M EDTA (pH 5) as the mobile phase and gamma counting using an energy window of 500-1500 keV and standard protocols . Serum samples were also analyzed after 7 days by size exclusion chromatography (SEC) using a Superdex 200 10/300 GLTM column (GE Healthcare Life Sciences, Piscataway, NJ) and phosphate buffered saline (PBS) as eluent with a flow rate of 0.5 mL/min.
# Figure S30. Radio-ITLC of 89Zr-DOTA solution in human serum at 37 °C after 0 h (a) and 7 days (b). […]
# [4] = Biodistribution studies; format: in vivo, female NIH Swiss mice; conditions: mice, over the 72 h experiment
# Description: Biodistribution Studies. Biodistribution studies were conducted using a modified literature procedure. 7 Briefly, female NIH Swiss mice (6-8 wk old, n=6) were injected with each 89Zr-labeled complex (0.55 MBq (15 μCi)/mouse) via the tail vein, and sacrificed at 2, 4, 24, 48, 72 h post-injection. Organs and tissues of interest were excised, weighted, and counted on a Perkin Elmer 2480 Wizard® gamma counter (Waltham, MA). The percent injected dose per gram (%ID/g) and percent injected dose per organ (%ID/organ) were calculated by comparison to a weighed, counted standard for each group (Tables S9 – S12).
# Statistical Methods. All of the data are presented as mean±SD or mean (95% Confidence Interval). For statistical classification a student’s t test (two-tailed, unpaired) was performed using GraphPad Prism (San Diego, CA). Any p<0.05 was considered significant.
compound,measurement,setting,value
NC(=O)CN1CCN(CC(N)=O)CCN(CC(N)=O)CCN(CC(N)=O)CC1.[89Zr+4] [89Zr-DOTAM],% Intact of 89Zr-complexes,"[1]; EDTA 100-fold, pH 5.0, 37 C, 1 h",97.7 ± 0.2%
same,% Intact of 89Zr-complexes,"[1]; EDTA 100-fold, pH 5.0, 37 C, 1 d",84.4 ± 0.9%
same,% Intact of 89Zr-complexes,"[1]; EDTA 100-fold, pH 5.0, 37 C, 3 d",67.6 ± 0.9%
same,% Intact of 89Zr-complexes,"[1]; EDTA 100-fold, pH 5.0, 37 C, 5 d",49.6 ± 0.6%
same,% Intact of 89Zr-complexes,"[1]; EDTA 100-fold, pH 5.0, 37 C, 7 d",42.3 ± 1.2%
same,% Intact of 89Zr-complexes,"[1]; EDTA 100-fold, pH 7.0, 37 C, 1 h",99.0 ± 0.2%
same,% Intact of 89Zr-complexes,"[1]; EDTA 100-fold, pH 7.0, 37 C, 1 d",90.9 ± 0.8%
same,% Intact of 89Zr-complexes,"[1]; EDTA 100-fold, pH 7.0, 37 C, 3 d",86.1 ± 1.1%
same,% Intact of 89Zr-complexes,"[1]; EDTA 100-fold, pH 7.0, 37 C, 5 d",75.7 ± 0.8%
same,% Intact of 89Zr-complexes,"[1]; EDTA 100-fold, pH 7.0, 37 C, 7 d",72.1 ± 2.0%
same,% Intact of 89Zr-complexes,"[1]; EDTA 500-fold, pH 5.0, 37 C, 1 h",97.5 ± 0.6%
same,% Intact of 89Zr-complexes,"[1]; EDTA 500-fold, pH 5.0, 37 C, 1 d",80.0 ± 1.2%
same,% Intact of 89Zr-complexes,"[1]; EDTA 500-fold, pH 5.0, 37 C, 3 d",47.0 ± 0.4%
same,% Intact of 89Zr-complexes,"[1]; EDTA 500-fold, pH 5.0, 37 C, 5 d",22.8 ± 1.8%
same,% Intact of 89Zr-complexes,"[1]; EDTA 500-fold, pH 5.0, 37 C, 7 d",12.2 ± 1.5%
same,% Intact of 89Zr-complexes,"[1]; EDTA 500-fold, pH 7.0, 37 C, 1 h",98.5 ± 0.2%
same,% Intact of 89Zr-complexes,"[1]; EDTA 500-fold, pH 7.0, 37 C, 1 d",90.8 ± 0.9%
same,% Intact of 89Zr-complexes,"[1]; EDTA 500-fold, pH 7.0, 37 C, 3 d",77.5 ± 1.4%
same,% Intact of 89Zr-complexes,"[1]; EDTA 500-fold, pH 7.0, 37 C, 5 d",66.6 ± 0.5%
same,% Intact of 89Zr-complexes,"[1]; EDTA 500-fold, pH 7.0, 37 C, 7 d",58.1 ± 1.4%
same,% Intact of 89Zr-complexes,"[1]; EDTA 1000-fold, pH 5.0, 37 C, 1 h",96.5 ± 0.2%
same,% Intact of 89Zr-complexes,"[1]; EDTA 1000-fold, pH 5.0, 37 C, 1 d",77.0 ± 1.3%
same,% Intact of 89Zr-complexes,"[1]; EDTA 1000-fold, pH 5.0, 37 C, 3 d",38.3 ± 1.5%
same,% Intact of 89Zr-complexes,"[1]; EDTA 1000-fold, pH 5.0, 37 C, 5 d",13.4 ± 1.6%
same,% Intact of 89Zr-complexes,"[1]; EDTA 1000-fold, pH 5.0, 37 C, 7 d",5.7 ± 1.0%
same,% Intact of 89Zr-complexes,"[1]; EDTA 1000-fold, pH 7.0, 37 C, 1 h",98.3 ± 0.1%
same,% Intact of 89Zr-complexes,"[1]; EDTA 1000-fold, pH 7.0, 37 C, 1 d",88.6 ± 0.4%
same,% Intact of 89Zr-complexes,"[1]; EDTA 1000-fold, pH 7.0, 37 C, 3 d",69.9 ± 1.8%
same,% Intact of 89Zr-complexes,"[1]; EDTA 1000-fold, pH 7.0, 37 C, 5 d",58.2 ± 1.3%
same,% Intact of 89Zr-complexes,"[1]; EDTA 1000-fold, pH 7.0, 37 C, 7 d",47.4 ± 0.9%
same,% Intact of 89Zr-complexes,"[2]; Co2+, 2 h",92.6 ± 0.5%
same,% Intact of 89Zr-complexes,"[2]; Co2+, 1 d",88.6 ± 0.3%
same,% Intact of 89Zr-complexes,"[2]; Co2+, 4 d",85.8 ± 0.4%
same,% Intact of 89Zr-complexes,"[2]; Co2+, 7 d",80.9 ± 1.0%
same,% Intact of 89Zr-complexes,"[2]; Cu2+, 2 h",91.9 ± 0.1%
same,% Intact of 89Zr-complexes,"[2]; Cu2+, 1 d",86.7 ± 0.7%
same,% Intact of 89Zr-complexes,"[2]; Cu2+, 4 d",80.5 ± 0.8%
same,% Intact of 89Zr-complexes,"[2]; Cu2+, 7 d",74.1 ± 1.2%
same,% Intact of 89Zr-complexes,"[2]; Fe3+, 2 h",92.4 ± 0.5%
same,% Intact of 89Zr-complexes,"[2]; Fe3+, 1 d",89.8 ± 0.2%
same,% Intact of 89Zr-complexes,"[2]; Fe3+, 4 d",87.2 ± 0.8%
same,% Intact of 89Zr-complexes,"[2]; Fe3+, 7 d",85.8 ± 0.8%
same,% Intact of 89Zr-complexes,"[2]; Ga3+, 2 h",92.9 ± 0.7%
same,% Intact of 89Zr-complexes,"[2]; Ga3+, 1 d",87.9 ± 0.7%
same,% Intact of 89Zr-complexes,"[2]; Ga3+, 4 d",86.6 ± 2.3%
same,% Intact of 89Zr-complexes,"[2]; Ga3+, 7 d",80.3 ± 0.4%
same,% Intact of 89Zr-complexes,"[2]; Gd3+, 2 h",93.9 ± 0.3%
same,% Intact of 89Zr-complexes,"[2]; Gd3+, 1 d",90.6 ± 0.3%
same,% Intact of 89Zr-complexes,"[2]; Gd3+, 4 d",88.8 ± 0.6%
same,% Intact of 89Zr-complexes,"[2]; Gd3+, 7 d",86.3 ± 0.1%
same,% Intact of 89Zr-complexes,"[2]; Mg2+, 2 h",93.6 ± 1.0%
same,% Intact of 89Zr-complexes,"[2]; Mg2+, 1 d",90.5 ± 0.5%
same,% Intact of 89Zr-complexes,"[2]; Mg2+, 4 d",87.4 ± 0.9%
same,% Intact of 89Zr-complexes,"[2]; Mg2+, 7 d",93.1 ± 0.8%
same,% Intact of 89Zr-complexes,"[2]; Zn2+, 2 h",94.1 ± 0.5%
same,% Intact of 89Zr-complexes,"[2]; Zn2+, 1 d",89.4 ± 1.9%
same,% Intact of 89Zr-complexes,"[2]; Zn2+, 4 d",71.9 ± 1.7%
same,% Intact of 89Zr-complexes,"[2]; Zn2+, 7 d",57.0 ± 1.8%
same,Radio-ITLC peak of complex in human serum,[3],99.2%
same,Radioactivity retention in liver and spleen tissues,[4],retained elevated levels of radioactivity
